Experimental findings from patent publication US12116356B2, “N-heterocyclic five-membered ring-containing capsid protein assembly inhibitor, pharmaceutical composition thereof, and use thereof” (CHIA TAI TIANQING PHARMACEUTICAL GROUP CO., LTD., priority 2018, dated 2024) are described below.

The target in one data set is CYP 2B6 (Homo sapiens (Human), UniProt P20813). The data set can be described thus: CYP450 enzyme inhibition study (liver microsomes, subtype IC50). It is filed as in vitro ADME. To be noted: 30 minutes, read-out: Subtypes IC50 2B6. As to the method:
(§1) 500 μL of a final incubation system contains 50 μL of liver microsomes (protein concentration: 0.2 mg/mL), 1 μL of mixed CYP450 specific substrates (CYP1A2, CYP 2B6, CYP 2C9, CYP2C19, CYP 2D6, and CYP 3A4), 398 μL PBS buffer (PH7.4), 1 μL specific positive inhibitor (positive control group) or the test compound (formulated with acetonitrile), and 50 μL NADPH+MgCl2. Duplicate incubation systems of 0.5 mL each were formulated for each CYP450 subtype. A total volume of 450 μL of a uniformly mixed solution of the substrate and the enzyme was formulated in each tube, and the solution and NADPH were pre-incubated at 37° C. for 5 minutes, respectively. Then 50 μL of the mixed solution of NADPH+MgCl2 was added for reaction. 50 μL of the reaction solution was taken out at 30 minutes, and the reaction was terminated with 300 μL of ice acetonitrile containing an internal standard. In addition, two control groups of 500 μL each without NADPH were prepared in parallel as a negative control group.
(§2) Sample pre-treatment: To 50 μL of the incubated sample was added 300 μL of ice acetonitrile containing an internal standard, and then precipitated. After vortexing for 5 minutes, the sample was centrifugated (12000 rpm, 4° C.) for 10 minutes. 75 μL of the supernatant was pipetted, and 75 μL of ultrapure water was added thereto for dilution and mixed uniformly. 1 μL of the resulting solution was injected for analysis.

The target of the next data set is CYP 2C9 (Homo sapiens (Human), UniProt P11712). The data set is described as above. It counts as in vitro ADME. To be noted: 30 minutes, read-out: Subtypes IC50 2C9. On the procedure:
as §1, §2

The target of another data set is CYP 2D6 (Homo sapiens (Human), UniProt P10635). The description is as above. The conditions noted are these: 30 minutes, read-out: Subtypes IC50 2D6. It counts as in vitro ADME. On the procedure: as §1, §2
Another data set concerns the target CYP 3A4 (Homo sapiens (Human), UniProt P08684). The description is as above. The conditions noted are these: 30 minutes, read-out: Subtypes IC50 3A4. It counts as in vitro ADME. On the procedure:
as §1, §2

For a further data set, the target named is CYP1A2 (Homo sapiens (Human), UniProt P05177). The description is as above. It counts as in vitro ADME. As to the method: as §1, §2
For the next data set, the target named is CYP2C19 (Homo sapiens (Human), UniProt P33261). The data set is described as above. It counts as in vitro ADME. To be noted: 30 minutes, read-out: Subtypes IC50 2C19. As to the method: as §1, §2
A short description of data set [1]: Plasma protein binding assay (equilibrium dialysis), human plasma. It is filed as in vitro ADME. As to the method: (§3) Formulation of plasma sample: 495 μL of blank plasmas of the corresponding species (mouse, rat, dog, monkey, and human) were drawn respectively, and thereto was added 5 μL of the corresponding test compound solution or positive control to give plasma sample solutions having a plasma drug concentration of the compound of 1 μM, and 10 μM, respectively (formulated with acetonitrile).
(§4) The pre-treated dialysis membrane was placed in a high-throughput equilibrium dialysis device, and 100 μL of the plasma sample solution and PBS buffer solution were drawn and added respectively to both sides of the dialysis membrane (sample side and buffer side) (n=3). After the equilibration device was sealed with a film, it was incubated at 37° C. overnight (100 rpm). After dialysis equilibrium was reached, 50 μL samples were drawn from the sample side and the buffer side, respectively, and the reaction was terminated by adding ice acetonitrile containing an internal standard.
as §2, with “plasma-side” for “incubated”, “450” for “300”, “analysis. To 50 μL of the PBS-side sample was added 250 μL of ice acetonitrile with an internal standard, and precipitated. After vortexing for 5 min, the sample was centrifugated (12000 rpm, 4° C.) for 10 min. 75 μL of the supernatant was pipetted, and 75 μL of ultrapure water was added thereto for dilution and mixed uniformly. 2 μL of the resulting solution was injected for analysis.” for “analysis.”

A short description of data set [2]: Plasma protein binding assay (equilibrium dialysis), rat plasma. It is filed as in vitro ADME. As to the method: as §3, §4
as §2, with “plasma-side” for “incubated”, “450” for “300”, “analysis. To 50 μL of the PBS-side sample was added 250 μL of ice acetonitrile with an internal standard, and precipitated. After vortexing for 5 min, the sample was centrifugated (12000 rpm, 4° C.) for 10 min. 75 μL of the supernatant was pipetted, and 75 μL of ultrapure water was added thereto for dilution and mixed uniformly. 2 μL of the resulting solution was injected for analysis.” for “analysis.”

The nature of data set [3]: Plasma protein binding assay (equilibrium dialysis), monkey plasma. It is filed as in vitro ADME. As to the method: as §3, §4
as §2, with “plasma-side” for “incubated”, “450” for “300”, “analysis. To 50 μL of the PBS-side sample was added 250 μL of ice acetonitrile with an internal standard, and precipitated. After vortexing for 5 min, the sample was centrifugated (12000 rpm, 4° C.) for 10 min. 75 μL of the supernatant was pipetted, and 75 μL of ultrapure water was added thereto for dilution and mixed uniformly. 2 μL of the resulting solution was injected for analysis.” for “analysis.”

A short description of data set [4]: Stability of mouse liver microsomes in vitro. It is filed as in vitro ADME. On the procedure: 300 μL of a final incubation system contains 30 μL of liver microsomes (protein concentration: 0.15 mg/mL), 30 μL NADPH+MgCl2, 3 μL substrate (formulated with acetonitrile), and 237 μL PBS buffer. Duplicate incubation systems of 0.3 mL each were formulated for each species. A total volume of 270 μL of a uniformly mixed solution of the substrate and the enzyme was formulated in each tube, the solution and NADPH were pre-incubated at 37° C. for 5 minutes, respectively. Then 30 μL of the mixed solution of NADPH+MgCl2 was added for reaction. 50 μL of the reaction solution was taken out at 0, 10, 30, and 60 mins, and the reaction was terminated with 300 μL of ice acetonitrile containing an internal standard.
Sample pre-treatment: To 50 μL of the incubated sample was added 300 μL of ice acetonitrile containing diazepam as an internal standard and then precipitated. After vortexing for 5 minutes, the sample was centrifugated (12000 rpm, 4° C.) for 10 minutes. 75 μL of the supernatant was pipetted into a 96-well plate, and then diluted with 75 μL ultrapure water and mixed uniformly. 0.5 μL of the resulting solution was injected and analyzed by LC-MS/MS.

The subject of data set [5] is rAAV8-1.3HBV virus (adr subtype). The data set can be described thus: Antiviral effect evaluation in AAV mouse model. It counts as in vivo, C57BL/6 mice. The conditions noted are these: 30 mpk intragastric once daily, administration for 24 days. As to the method: 6-8 week old male C57BL/6 mice were injected with rAAV8-1.3HBV virus (adr subtype) at tail vein at a dose of 1×10^11 vg. Blood was collected from the orbits of the mice on week 2 and 4 after the virus injection. The serum was separated, and the expression levels of HBeAg and HBsAg in the serum and the HBV DNA copy number were detected to evaluate whether the model was successfully established. According to the results of quantitative detection of serological HBeAg, HBsAg and HBV DNA, the mice having HBV DNA expression level greater than 1×10^4 IU/mL, HBeAg expression level greater than 1×10^3 NCU/mL and HBsAg expression level greater than 1×10^3 ng/mL were selected. The mice were grouped into a blank control group, a vehicle control group, and a test substance group. […] During the experiment, blood was collected from the orbits every other week, serum was separated, and the DNA content was detected by fluorescent quantitative PCR method.

Sequence of CYP 2B6 (P20813 whole entry): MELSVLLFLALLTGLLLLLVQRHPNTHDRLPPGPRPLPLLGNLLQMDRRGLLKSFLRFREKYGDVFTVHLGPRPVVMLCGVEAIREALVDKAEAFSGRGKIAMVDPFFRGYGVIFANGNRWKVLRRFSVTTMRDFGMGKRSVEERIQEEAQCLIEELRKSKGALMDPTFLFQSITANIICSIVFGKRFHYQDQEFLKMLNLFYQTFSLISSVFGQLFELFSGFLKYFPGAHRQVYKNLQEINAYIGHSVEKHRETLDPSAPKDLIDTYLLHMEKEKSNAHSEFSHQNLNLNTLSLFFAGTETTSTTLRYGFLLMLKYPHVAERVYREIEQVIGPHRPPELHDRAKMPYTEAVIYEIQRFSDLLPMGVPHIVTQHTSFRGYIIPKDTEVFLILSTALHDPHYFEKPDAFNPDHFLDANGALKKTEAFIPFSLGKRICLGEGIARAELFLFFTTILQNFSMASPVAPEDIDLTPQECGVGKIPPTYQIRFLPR
Sequence of CYP 2C9 (P11712 whole entry): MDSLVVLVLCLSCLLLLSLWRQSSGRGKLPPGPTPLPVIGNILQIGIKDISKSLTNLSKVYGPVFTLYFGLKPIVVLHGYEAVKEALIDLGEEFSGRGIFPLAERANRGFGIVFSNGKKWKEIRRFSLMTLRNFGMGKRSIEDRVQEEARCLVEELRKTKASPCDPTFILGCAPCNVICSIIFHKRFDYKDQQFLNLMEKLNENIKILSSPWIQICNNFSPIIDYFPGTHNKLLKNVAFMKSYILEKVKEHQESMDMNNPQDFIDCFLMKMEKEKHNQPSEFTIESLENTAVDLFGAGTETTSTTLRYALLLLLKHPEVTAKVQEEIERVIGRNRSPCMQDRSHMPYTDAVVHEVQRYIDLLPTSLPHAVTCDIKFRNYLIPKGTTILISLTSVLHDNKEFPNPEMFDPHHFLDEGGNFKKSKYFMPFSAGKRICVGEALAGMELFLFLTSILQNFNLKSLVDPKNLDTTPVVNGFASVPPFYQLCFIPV
Sequence of CYP1A2 (P05177 whole entry): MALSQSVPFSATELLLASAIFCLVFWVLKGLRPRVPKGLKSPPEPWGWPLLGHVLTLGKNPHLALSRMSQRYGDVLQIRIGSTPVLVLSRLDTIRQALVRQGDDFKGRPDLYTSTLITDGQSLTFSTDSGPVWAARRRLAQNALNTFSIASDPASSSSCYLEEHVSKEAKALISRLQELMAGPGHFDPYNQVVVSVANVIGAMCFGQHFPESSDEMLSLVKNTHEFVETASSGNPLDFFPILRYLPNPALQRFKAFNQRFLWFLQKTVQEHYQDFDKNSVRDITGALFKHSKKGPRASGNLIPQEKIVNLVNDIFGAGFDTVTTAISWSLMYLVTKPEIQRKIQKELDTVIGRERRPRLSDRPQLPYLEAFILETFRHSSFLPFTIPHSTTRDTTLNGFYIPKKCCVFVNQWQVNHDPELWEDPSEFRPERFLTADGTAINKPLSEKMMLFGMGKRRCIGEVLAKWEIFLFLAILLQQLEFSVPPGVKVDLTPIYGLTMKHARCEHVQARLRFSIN
Sequence of CYP 3A4 (P08684 whole entry): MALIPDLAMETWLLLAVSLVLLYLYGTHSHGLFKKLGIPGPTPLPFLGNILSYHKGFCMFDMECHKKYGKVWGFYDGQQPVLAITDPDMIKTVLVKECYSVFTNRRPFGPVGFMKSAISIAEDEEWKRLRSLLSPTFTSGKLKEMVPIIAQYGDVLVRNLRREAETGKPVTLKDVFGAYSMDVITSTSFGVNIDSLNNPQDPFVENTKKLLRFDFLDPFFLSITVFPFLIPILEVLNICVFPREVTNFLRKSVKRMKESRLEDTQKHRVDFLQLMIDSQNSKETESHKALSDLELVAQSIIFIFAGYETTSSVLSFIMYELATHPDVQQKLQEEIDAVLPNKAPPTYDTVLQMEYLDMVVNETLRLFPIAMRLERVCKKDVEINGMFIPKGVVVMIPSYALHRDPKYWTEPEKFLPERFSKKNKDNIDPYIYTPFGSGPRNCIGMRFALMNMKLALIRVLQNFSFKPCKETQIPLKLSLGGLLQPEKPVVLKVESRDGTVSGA
Sequence of CYP 2D6 (P10635 whole entry): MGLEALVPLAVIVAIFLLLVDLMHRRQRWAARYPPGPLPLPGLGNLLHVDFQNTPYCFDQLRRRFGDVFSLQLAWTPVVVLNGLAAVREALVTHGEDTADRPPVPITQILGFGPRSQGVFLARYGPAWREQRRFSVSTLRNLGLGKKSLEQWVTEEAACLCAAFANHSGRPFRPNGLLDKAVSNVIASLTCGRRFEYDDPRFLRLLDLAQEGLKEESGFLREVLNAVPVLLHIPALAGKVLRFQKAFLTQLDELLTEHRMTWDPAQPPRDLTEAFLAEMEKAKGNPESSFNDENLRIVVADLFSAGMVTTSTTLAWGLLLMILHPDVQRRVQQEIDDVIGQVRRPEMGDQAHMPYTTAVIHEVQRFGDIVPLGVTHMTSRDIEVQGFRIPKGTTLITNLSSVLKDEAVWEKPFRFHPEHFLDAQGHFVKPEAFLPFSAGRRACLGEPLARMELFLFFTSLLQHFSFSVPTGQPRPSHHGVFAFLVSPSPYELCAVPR
Sequence of CYP2C19 (P33261 whole entry): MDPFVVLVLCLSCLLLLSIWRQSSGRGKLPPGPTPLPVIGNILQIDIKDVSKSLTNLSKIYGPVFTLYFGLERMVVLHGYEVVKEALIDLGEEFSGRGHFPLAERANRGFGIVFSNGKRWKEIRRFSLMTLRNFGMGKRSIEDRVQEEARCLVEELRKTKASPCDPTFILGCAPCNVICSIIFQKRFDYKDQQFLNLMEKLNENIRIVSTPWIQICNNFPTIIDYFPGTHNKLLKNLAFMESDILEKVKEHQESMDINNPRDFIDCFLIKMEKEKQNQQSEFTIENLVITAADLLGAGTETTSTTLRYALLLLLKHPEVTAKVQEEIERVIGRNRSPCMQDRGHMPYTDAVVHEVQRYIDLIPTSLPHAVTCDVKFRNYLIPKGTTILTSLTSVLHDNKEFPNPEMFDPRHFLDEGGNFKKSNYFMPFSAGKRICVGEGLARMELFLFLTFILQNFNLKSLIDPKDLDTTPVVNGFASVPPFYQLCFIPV

For `Cc1c(C(=O)Nc2ccc(F)c(C#N)c2)c(C)n(C)c1C(=O)C(=O)NC1(C(F)(F)F)COC1` [Example 25, N-(3-cyano-4-fluorophenyl)-1,2,4-trimethyl-5-(2-oxo-2-((3-(trifluoromethyl)oxetan-3-yl)amino)acetyl)-1H-pyrrole-3-carboxamide], the IC50 at CYP 2B6 was 61.1 µM; on CYP 2C9 it was 16.6 µM; at CYP 2D6, 120 µM; on CYP 3A4, 76 µM; against CYP1A2, 229 µM; at CYP2C19 it was 24.9 µM. Moreover, the Binding rate in data set [1] (1 μM) turned out to be 92.9%; in [1] (10 μM) it was 92.2%; in data set [2] (1 μM), 79.5%; in data set [2] (10 μM), 77.0%; in data set [3] (1 μM) it was 87.4%; in [3] (10 μM), 85.6%. Also, the “Remaining (%) at 60 min” value in data set [4] worked out at 50.8%. Besides, the “Reduction levels (log10) of HBV DNA in serum, Day 7” value in data set [5] was determined as 1.16 log10. Moreover, the “Reduction levels (log10) of HBV DNA in serum, Day 14” value in [5] was 1.76 log10. Also, in data set [5], the “Reduction levels (log10) of HBV DNA in serum, Day 21” value is 2.89 log10. For the same compound, the “Reduction levels (log10) of HBV DNA in serum, Day 28” value in data set [5] is given as 1.28 log10.

As to `Cc1c(C(=O)Nc2ccc(F)c(C#N)c2)c(C)n(C)c1C(=O)C(=O)N[C@@H](C)C(F)(F)F` [Example 12], the IC50 on CYP 2B6 is 146 µM; on CYP 2C9, 79.7 µM; on CYP 2D6, 224 µM; at CYP 3A4, over 200 µM; against CYP1A2, 46.4 µM; at CYP2C19, 60 µM. For the same compound, the Binding rate in data set [1] (1 μM) is reported as 94.0%; in data set [1] (10 μM), 93.7%; in data set [2] (1 μM), 82.0%; in data set [2] (10 μM), 79.2%; in data set [3] (1 μM) it was 90.7%; in data set [3] (10 μM), 90.6%. The “Remaining (%) at 60 min” value in data set [4] came out at 67.1%. In addition, the “Reduction levels (log10) of HBV DNA in serum, Day 7” value in data set [5] was determined as 2.42 log10. In addition, the “Reduction levels (log10) of HBV DNA in serum, Day 14” value in data set [5] is recorded as 3.46 log10. The “Reduction levels (log10) of HBV DNA in serum, Day 21” value in [5] is on record as 5.08 log10. The “Reduction levels (log10) of HBV DNA in serum, Day 28” value in data set [5] was found to be 2.48 log10.
